`COCCCn1c(CO)cc2c3c(c(-c4ccccc4Cl)cc21)C(=O)NC3=O` [Example 59, 4-(2-Chlorophenyl)-7-hydroxymethyl-6-(3-methoxypropyl)-6H-2,6-diaza-as-indacene-1,3-dione]: the melting point was in the range of 187 to 189 °C. Turning to `CN(C)Cc1cn(C)c2cc(-c3ccccc3Cl)c3c(c12)C(=O)NC3=O` [Example 167, 4-(2-Chlorophenyl)-8-dimethylaminomethyl-6-methyl-6H-2,6-diaza-as-indacene-1,3-dione], the melting point lay in the range of 155 to 159 °C. Under `CCc1cn(C)c2cc(-c3ccccc3Cl)c3c(c12)C(=O)NC3=O` [Example 148, 4-(2-Chlorophenyl)-8-ethyl-6-methyl-6H-2,6-diaza-as-indacene-1,3-dione] stands 230 to 233 °C; under `COCCCn1c(C(N)=O)cc2c3c(c(-c4ccccc4Cl)cc21)C(=O)NC3=O` [Example 51, 4-(2-Chlorophenyl)-6-(3-methoxypropyl)-1,3-dioxo-1,2,3,6-tetrahydro-2,6-diaza-as-indacene-7-carboxylic acid amide], 260 to 261 °C. Under `COc1ccccc1-c1cc2c(c(Cl)cn2C)c2c1C(=O)NC2=O` [Example 30, 8-Chloro-4-(2-methoxyphenyl)-6-methyl-6H-2,6-diaza-as-indacene-1,3-dione] stands 267 to 271 °C; under `Cl.NCCCn1cc(Br)c2c3c(c(-c4ccccc4Cl)cc21)C(=O)NC3=O`, 310 to 313 °C; under `CCOC(=O)c1cc2c3c(c(-c4ccccc4Cl)cc2n1CCCOC)C(=O)NC3=O` [Example 46, 4-(2-Chlorophenyl)-6-(3-methoxypropyl)-1,3-dioxo-1,2,3,6-tetrahydro-2,6-diaza-as-indacene-7-carboxylic acid ethyl ester], 235 to 237 °C. Then `Cn1cc(Br)c2c3c(c(I)cc21)C(=O)NC3=O` [Example 132, 8-Bromo-4-iodo-6-methyl-6H-2,6-diaza-as-indacene-1,3-dione], with 242 °C (dec.); and `COCCOCCCn1c(CO)c(Br)c2c3c(c(-c4ccccc4Cl)cc21)C(=O)NC3=O` [Example 70], with 149 to 150 °C; and `CN1CCN(CCCn2cc(Br)c3c4c(c(-c5ccccc5Cl)cc32)C(=O)NC4=O)CC1` [Example 138, 8-Bromo-4-(2-chlorophenyl)-6-[3-(4-methylpiperazin-1-yl)-propyl]-6H-2,6-diaza-as-indacene-1,3-dione], with 150 to 152 °C. `Cn1cc(C#N)c2c3c(c(-c4ccccc4Cl)cc21)C(=O)NC3=O` [Example 151, 4-(2-Chlorophenyl)-6-methyl-1,3-dioxo-1,2,3,6-tetrahydro-2,6-diaza-as-indacene-8-carbonitrile] returned a melting point of 160 to 163 °C. Under `O=C1NC(=O)c2c1c(-c1ccccc1Cl)cc1c2ccn1CCN1CCCC1` [Example 142, 4-(2-Chlorophenyl)-6-(2-pyrrolidin-1-ylethyl)-6H-2,6-diaza-as-indacene-1,3-dione] stands 208 to 209 °C; under `COc1cccc(Cl)c1-c1cc2c(c(Br)cn2C)c2c1C(=O)NC2=O` [Example 34, 8-Bromo-4-(2-chloro-6-methoxyphenyl)-6-methyl-6H-2,6-diaza-as-indacene-1,3-dione], 238 to 242 °C. In turn, `O=C1NC(=O)c2c1c(-c1ccccc1Cl)cc1c2c(Br)c(CO)n1CCCO` [Example 63, 8-Bromo-4-(2-chlorophenyl)-7-hydroxymethyl-6-(3-hydroxypropyl)-6H-2,6-diaza-as-indacene-1,3-dione] came in with a melting point of 203 to 205 °C. Under `Cn1cc(I)c2c3c(c(-c4ccccc4Cl)cc21)C(=O)NC3=O` [Example 32, 4-(2-Chlorophenyl)-8-iodo-6-methyl-6H-2,6-diaza-as-indacene-1,3-dione] stands 150 to 154 °C (dec.); under `O=C1NC(=O)c2c1c(-c1ccccc1Cl)cc1c2c(Br)cn1CCCN1CCOCC1` [Example 139, 8-Bromo-4-(2-chlorophenyl)-6-(3-morpholin-4-ylpropyl)-6H-2,6-diaza-as-indacene-1,3-dione], 117 to 120 °C. Then `O=C1NC(=O)c2c1c(-c1ccccc1Cl)cc1c2ccn1CCCO` [Example 42, 4-(2-Chlorophenyl)-6-(3-hydroxypropyl)-6H-2,6-diaza-as-indacene-1,3-dione], with 225 to 227 °C; and `C=Cc1cn(C)c2cc(-c3ccccc3Cl)c3c(c12)C(=O)NC3=O` [Example 145, 4-(2-Chlorophenyl)-6-methyl-8-vinyl-6H-2,6-diaza-as-indacene-1,3-dione], with 200 to 205 °C. Then `Cn1cc(CCO)c2c3c(c(-c4ccccc4Cl)cc21)C(=O)NC3=O` [Example 147, 4-(2-Chlorophenyl)-8-(2-hydroxyethyl)-6-methyl-6H-2,6-diaza-as-indacene-1,3-dione], with 225 to 229 °C; and `COCCCn1c(CO)c(Cl)c2c3c(c(-c4ccccc4Cl)cc21)C(=O)NC3=O` [Example 67, 8-Chloro-4-(2-chlorophenyl)-7-hydroxymethyl-6-(3-methoxypropyl)-6H-2,6-diaza-as-indacene-1,3-dione], with 214 to 215 °C; and `COCCCn1c(C=O)c(Br)c2c3c(c(-c4ccccc4Cl)cc21)C(=O)NC3=O` [Example 61, 8-Bromo-4-(2-chlorophenyl)-6-(3-methoxypropyl)-1,3-dioxo-1,2,3,6-tetrahydro-2,6-diaza-as-indacene-7-carbaldehyde], with 206 to 207 °C. `CN(C)CCCn1cc(Br)c2c3c(c(-c4ccccc4Cl)cc21)C(=O)NC3=O` [Example 140, 8-Bromo-4-(2-chlorophenyl)-6-(3-dimethylaminopropyl)-6H-2,6-diaza-as-indacene-1,3-dione]: the melting point was 160 to 162 °C. For the compound `C#Cc1cn(C)c2cc(-c3ccccc3Cl)c3c(c12)C(=O)NC3=O` [Example 149, 4-(2-Chlorophenyl)-8-ethynyl-6-methyl-6H-2,6-diaza-as-indacene-1,3-dione], the melting point was in the range of 125 to 129 °C. Compound `C[C@@H]1CN(CCCn2cc(Br)c3c4c(c(-c5ccccc5Cl)cc32)C(=O)NC4=O)C[C@H](C)N1` [Example 135, 8-Bromo-4-(2-chlorophenyl)-6-[3-(cis-3,5-dimethylpiperazin-1-yl)propyl]-6H-2,6-diaza-as-indacene-1,3-dione] gave a melting point of 236 to 239 °C. Compound `CCOCCOCCn1c(C=O)c(Br)c2c3c(c(-c4ccccc4Cl)cc21)C(=O)NC3=O` [Example 56, 8-Bromo-4-(2-chlorophenyl)-6-[2-(2-ethoxyethoxy)ethyl]-1,3-dioxo-1,2,3,6-tetrahydro-2,6-diaza-as-indacene-7-carbaldehyde] gave a melting point of 203 to 205 °C. Then `COc1ccccc1-c1cc2c(ccn2C)c2c1C(=O)NC2=O` [Example 27, 4-(2-Methoxyphenyl)-6-methyl-6H-2,6-diaza-as-indacene-1,3-dione], with 243 to 245 °C; and `CCCN(CCC)CCCn1cc(Br)c2c3c(c(-c4ccccc4Cl)cc21)C(=O)NC3=O` [Example 141, 8-Bromo-4-(2-chlorophenyl)-6-(3-dipropylaminopropyl)-6H-2,6-diaza-as-indacene-1,3-dione], with 173 to 175 °C. Under `CCOCCOCCn1cc(Br)c2c3c(c(-c4ccccc4Cl)cc21)C(=O)NC3=O` [Example 36, 8-Bromo-4-(2-chlorophenyl)-6-[2-(2-ethoxyethoxy)ethyl]-6H-2,6-diaza-as-indacene-1,3-dione] stands 108 to 110 °C; under `COCCOCCCn1c(C=O)c(Br)c2c3c(c(-c4ccccc4Cl)cc21)C(=O)NC3=O` [Example 69, 8-Bromo-4-(2-chlorophenyl)-6-[3-(2-methoxyethoxy)propyl]-1,3-dioxo-1,2,3,6-tetrahydro-2,6-diaza-as-indacene-7-carbaldehyde], 168 to 169 °C; under `COCCCn1c(C=O)c(Cl)c2c3c(c(-c4ccccc4Cl)cc21)C(=O)NC3=O` [Example 64, 8-Chloro-4-(2-chlorophenyl)-6-(3-methoxypropyl)-1,3-dioxo-1,2,3,6-tetrahydro-2;6-diaza-as-indacene-7-carbaldehyde], 198 to 199 °C. With `COCCCn1c(CO)c(Br)c2c3c(c(-c4ccccc4Cl)cc21)C(=O)NC3=O` [Example 60, 8-Bromo-4-(2-chlorophenyl)-7-hydroxymethyl-6-(3-methoxypropyl)-6H-2,6-diaza-as-indacene-1,3-dione], the melting point fell in the range of 178 to 180 °C. As to `COc1cccc(Cl)c1-c1cc2c(ccn2C)c2c1C(=O)NC2=O` [Example 33, 4-(2-Chloro-6-methoxyphenyl)-6-methyl-6H-2,6-diaza-as-indacene-1,3-dione], the melting point lay within 268 to 272 °C. On to `CCOCCOCCn1ccc2c3c(c(-c4ccccc4Cl)cc21)C(=O)NC3=O` [Example 35, 4-(2-Chlorophenyl)-6-[2-(2-ethoxyethoxy)ethyl]-6H-2,6-diaza-as-indacene-1,3-dione], for which the melting point stood at 173 °C. On to `CSc1ccccc1-c1cc2c(ccn2C)c2c1C(=O)NC2=O` [Example 134 (sulfide), 6-Methyl-4-(2-methylsulfanylphenyl)-6H-2,6-diaza-as-indacene-1,3-dione], for which the melting point lay within 272 to 274 °C. Under `CCOC(=O)c1cc2c3c(c(-c4ccccc4Cl)cc2n1CCCO)C(=O)NC3=O` [Example 48 (ii), 4-(2-Chlorophenyl)-6-(3-hydroxypropyl)-1,3-dioxo-1,2,3,6-tetrahydro-2,6-diaza-as-indacene-7-carboxylic acid ethyl ester] stands 249 to 251 °C; under `Cn1c(C(=O)O)cc2c3c(c(-c4ccccc4Cl)cc21)C(=O)NC3=O` [Example 83, 4-(2-Chlorophenyl)-6-methyl-1,3-dioxo-1,2,3,6-tetrahydro-2,6-diaza-as-indacene-7-carboxylic acid], 301 to 302 °C.

`CSc1ccccc1-c1cc2c(c(Br)cn2C)c2c1C(=O)NC2=O` [Example 31, 8-Bromo-6-methyl-4-(2-methylsulfanylphenyl)-6H-2,6-diaza-as-indacene-1,3-dione] displayed a melting point of 240 to 243 °C.

The melting point is the temperature, or range, at which the solid turns liquid.

The values are drawn from patent US20050250836A1, “Inhibitors of checkpoint kinases (Wee1 and Chk1)” (Pfizer Inc, priority 2004, published 2005).
